{
  "source": "patent US20050163781A1",
  "about": "“Tissue adhesion formation control” (priority 2002, published 2005)",
  "key": {"adhesion formation [1]": {"system": "adhesion formation", "conditions": "oxygen added to CO2 pneumoperitoneum, intubated mice", "experimental": "In adult, female, NMRI (Naval Medical Research Institute) mice adhesions were induced by laparoscopy and evaluated by laparotomy under microscopic view in order to assess similar variables than in the rabbit model. […] The endoscope with an outer sheath for insufflation (total diameter 3.2 mm) was introduced caudal to the xyphoides by open laparoscopy. Survival after different insufflation pressures and duration of pneumoperitoneum was evaluated in non-intubated and intubated mice. […] For the induction of adhesions, after the establishment of the pneumoperitoneum, the 2nd and 3rd ports (14-gauge catheters) were introduced in the left and right flanks under laparoscopic vision. Standardised, opposing, linear lesions in the anti-mesenteric border of uterine horns and in the pelvic sidewalls were performed by monopolar coagulation. After 7 or 28 days adhesions were evaluated by scoring extent, type and tenacity and by a quantitative measurement. In non-intubated mice CO2 pneumoperitoneum at 2.5 cm of water was maintained for 5, 15, 30, 60 and 120 min to evaluate the effect of duration of pneumoperitoneum. […] To confirm this effect and to evaluate the effect of desiccation due to the flow rate though the animal, pneumoperitoneum was maintained for 5 and 60 min without flow and for 60 min with 1 and 10 ml/min of flow rate. […]"}, "adhesion formation [2]": {"system": "adhesion formation", "conditions": "0, 1, 2.5, 5, 10 and 20% of oxygen in CO2 pneumoperitoneum for 1 hour, laser lesions, rabbits"}},
  "data": [
    {"smiles": "O=O", "note": "[oxygen]", "values": [
      {"measurement": "oxygen proportion giving half maximal reduction of adhesions", "setting": "adhesion formation [1]", "value": "around 1.5 % of oxygen"},
      {"measurement": "oxygen proportion required for maximal response (reduction of adhesions)", "setting": "adhesion formation [1]", "value": "2-3 % of oxygen"},
      {"measurement": "oxygen proportion at which maximal effect (decrease of adhesion formation) was observed", "setting": "adhesion formation [2]", "value": "5 % of oxygen"}
    ]}
  ]
}
